Test results taken from BigSolDB 2.1.

CC1=C(O)C(=O)C(C)O1 (configuration not stated)
solubility (mole fraction)
Settings | 283.15 K | 288.15 K | 293.15 K | 298.15 K | 303.15 K | 308.15 K | 313.15 K
in ethanol | 0.12 | 0.151 | 0.188 | 0.234 | 0.287 | 0.351 | 0.427
in methanol | 0.143 | 0.174 | 0.21 | 0.257 | 0.31 | 0.374 | 0.449
in n-butanol | 0.0954 | 0.124 | 0.156 | 0.196 | 0.247 | 0.307 | 0.382
in n-hexane | 0.0054 | 0.0073 | 0.0096 | 0.0125 | 0.0163 | 0.0211 | 0.0271
in n-propanol | 0.11 | 0.138 | 0.174 | 0.216 | 0.268 | 0.332 | 0.408
in water | 0.0091 | 0.015 | 0.0251 | 0.0408 | 0.0665 | 0.107 | 0.173
